The values that follow come from ChEMBL document CHEMBL3351429, “Phenyl substituted 4-hydroxypyridazin-3(2H)-ones and 5-hydroxypyrimidin-4(3H)-ones: inhibitors of influenza A endonuclease” (J Med Chem, 2014).

Where only a bound is given, the exact number is not on record here.

This experiment in a line: Inhibition of influenza A virus H1N1 endonuclease (1 to 204 residues) expressed in Escherichia coli BL21 (RIL) using (6-FAM)-TGGCAATATCAGCTCCACA(MGBNFQ) single-stranded DNA probe by fluorimetry.
The term IC50 denotes the concentration that gives 50% inhibition. Consider `O=c1[nH]cc(-c2ccc(F)cc2)cc1O`, for which the IC50 was 0.73 µM. For `O=c1[nH]c(-c2ccc(F)cc2)ccc1O`, 0.43 µM corresponded to half-maximal inhibition (IC50).

Compound `O=c1[nH]cc(-c2ccc(F)cc2)[nH]c1=O` displayed a concentration for half-maximal inhibition (IC50) of 59 µM. For `O=c1[nH]cnc(-c2ccc(F)cc2)c1O` the value was over 193 µM; for `O=c1[nH]c(-c2ccc(F)cc2)ncc1O`, 0.58 µM; for `O=c1[nH]c(-c2cccc(F)c2)ncc1O`, 1.56 µM. `O=c1[nH]c(-c2ccccc2F)ncc1O`: half-maximal inhibition (IC50) required 1.67 µM.

The compound `O=c1[nH]c(-c2ccc(-c3ccccc3)cc2)ncc1O` returned an IC50 of 2.24 µM. For `O=c1[nH]c(-c2cccc(-c3ccccc3)c2)ncc1O` the value was 0.4 µM; for `O=c1[nH]c(-c2ccccc2-c2ccccc2)ncc1O`, 1.1 µM.

`N#Cc1ccc(-c2ncc(O)c(=O)[nH]2)cc1` had an IC50 of 0.52 µM. Next, `N#Cc1cccc(-c2ncc(O)c(=O)[nH]2)c1`: 0.25 µM; `O=c1[nH]c(-c2ccc(-c3nnn[nH]3)cc2)ncc1O`: 0.15 µM; `O=c1[nH]c(-c2cccc(-c3nnn[nH]3)c2)ncc1O`: 0.48 µM. Next, `O=c1[nH]ncc(-c2ccc(F)cc2)c1O`: 177 µM; `O=c1[nH]nc(-c2ccc(F)cc2)cc1O`: 6 µM; `N#Cc1ccc(-c2cc(O)c(=O)[nH]n2)cc1`: 9.3 µM. For `O=c1[nH]nc(-c2ccc(-c3nnn[nH]3)cc2)cc1O` the value was 3 µM.
